Source: PubChem BioAssay (NCI)
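Five concentrations, 48 hours, 96-well plates. TGI denotes the concentration required for complete inhibition of growth.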

Key:
Assay in all cases: growth of human tumour cells (NCI), 48 h
[1] = test system: ACHN renal
[2] = test system: HCT-116 colon
[3] = test system: HOP-92 NSCLC
[4] = test system: OVCAR-5 ovarian
[5] = test system: RXF 393 renal
[6] = test system: SK-MEL-28 melanoma
[7] = test system: SK-MEL-5 melanoma
[8] = test system: SNB-19 CNS
[9] = test system: SNB-75 CNS
[10] = test system: UACC-257 melanoma

For O=c1/c(=C/c2ccc(-c3ccc(Cl)cc3Cl)o2)sc2n1[C@@H](c1ccc3c(c1)OCO3)C=C(c1cc(F)c(Cl)cc1Cl)N=2, the TGI [1] was > 100 µM, the TGI [2] was > 100 µM and the TGI [3] was 95.5 µM. For the same compound, the TGI [4] was > 100 µM, the TGI [5] was > 100 µM and the TGI [6] was > 100 µM. For the same compound, the TGI [7] was > 100 µM, the TGI [8] was 95.4 µM and the TGI [9] was > 100 µM. The TGI [10] was 71.1 µM.

C=C(C(=O)OC)[C@H]1CC/C(C)=C/CC/C(C)=C/CC[C@@]2(C)O[C@@H]2C1 showed a TGI [1] of 34.5 µM, a TGI [2] of 28.7 µM and a TGI [3] of 35.1 µM. For the same compound, the TGI [4] was 48.2 µM, the TGI [5] was 28.8 µM and the TGI [6] was > 100 µM. The TGI [7] was 22 µM, the TGI [8] was > 100 µM and the TGI [9] was > 100 µM. For the same compound, the TGI [10] was 62.3 µM.

In the case of CSc1ccccc1P(CCP(c1ccccc1SC)c1ccccc1SC)c1ccccc1SC, the TGI [1] is reported as > 100 µM, the TGI [2] is reported as > 100 µM and the TGI [3] is reported as > 100 µM. The TGI [4] was > 100 µM, the TGI [5] was > 84.9 µM and the TGI [6] was > 100 µM. The TGI [7] was > 70.1 µM, the TGI [8] was > 100 µM and the TGI [9] was > 55.6 µM. For the same compound, the TGI [10] was > 89.5 µM.

For CC(C)CC(NC(=O)C(COc1ccc([N+](=O)[O-])cc1)Cc1ccccc1)C(=O)Nc1ccccc1 (configuration not stated), the TGI [1] was > 100 µM, the TGI [2] was > 100 µM and the TGI [3] was 34.2 µM. The TGI [4] was > 100 µM, the TGI [5] was 41.6 µM and the TGI [7] was > 100 µM. The TGI [8] was 20.2 µM, the TGI [9] was 7.84 µM and the TGI [10] was > 100 µM.

OC(O)(C(F)(F)F)C(F)(F)F was tested, and the TGI [1] was > 100 µM, the TGI [2] was > 100 µM and the TGI [3] was > 100 µM. For the same compound, the TGI [4] was > 100 µM, the TGI [5] was > 100 µM and the TGI [6] was > 100 µM. The TGI [7] was > 100 µM, the TGI [8] was > 100 µM and the TGI [9] was > 100 µM. The TGI [10] was > 100 µM.

With S=C(Nc1ccc2c(c1)Cc1ccccc1-2)Nc1ccc2c(c1)Cc1ccccc1-2 the TGI [1] was > 100 µM, the TGI [2] was > 100 µM and the TGI [3] was > 100 µM. For the same compound, the TGI [4] was > 100 µM, the TGI [5] was > 100 µM and the TGI [6] was > 100 µM. The TGI [7] was > 100 µM, the TGI [8] was > 100 µM and the TGI [10] was > 100 µM.

In the case of O=c1c(-c2ccc(O)cc2)coc2cc(O)cc(O)c12, the TGI [1] is reported as > 100 µM, the TGI [3] is reported as > 100 µM and the TGI [4] is reported as > 100 µM. For the same compound, the TGI [6] was > 100 µM, the TGI [7] was > 100 µM and the TGI [8] was > 100 µM.

For COc1cccc(C2CC(=O)c3cccn32)c1 (configuration not stated), the TGI [1] was > 100 µM, the TGI [2] was > 100 µM and the TGI [3] was > 100 µM. The TGI [4] was > 100 µM, the TGI [5] was > 100 µM and the TGI [6] was > 100 µM. The TGI [8] was > 100 µM, the TGI [9] was > 100 µM and the TGI [10] was > 100 µM.

For C[n+]1c(-c2ccc(/C=N/Nc3ccnc(N/N=C/c4ccc(-c5cn6ccccc6[n+]5C)cc4)n3)cc2)cn2ccccc21, the TGI [1] was 54.4 µM, the TGI [2] was > 100 µM and the TGI [4] was > 100 µM. The TGI [6] was 95.8 µM, the TGI [7] was > 100 µM and the TGI [8] was > 100 µM. For the same compound, the TGI [9] was > 100 µM and the TGI [10] was > 100 µM.

With O=C(/C=C/c1ccccc1)CCc1c(O)c2ccccc2oc1=O the TGI [1] was > 100 µM, the TGI [2] was > 100 µM and the TGI [3] was > 100 µM. The TGI [4] was > 100 µM, the TGI [6] was > 100 µM and the TGI [7] was > 100 µM. For the same compound, the TGI [8] was > 100 µM, the TGI [9] was > 100 µM and the TGI [10] was > 100 µM.

With CCOC(=O)c1cn(C)nc1N/C(C)=C\C(=O)c1ccccc1 the TGI [1] was > 100 µM, the TGI [3] was > 100 µM and the TGI [4] was > 100 µM. For the same compound, the TGI [6] was > 100 µM, the TGI [7] was > 100 µM and the TGI [8] was > 100 µM. The TGI [10] was > 100 µM.

For CC(=O)[C@H]1CCC2[C@@H]3CC=C4C(O)C(OS(=O)(=O)O)CC[C@]4(C)C3CC[C@@]21C (some centres not stated), the TGI [2] was > 100 µM, the TGI [3] was > 100 µM and the TGI [4] was > 100 µM. For the same compound, the TGI [5] was > 100 µM, the TGI [6] was > 100 µM and the TGI [7] was > 100 µM. The TGI [8] was > 100 µM, the TGI [9] was > 100 µM and the TGI [10] was > 100 µM.

In the case of C=C1CC(OC)(C(O)C(=O)N[C@H]2OCO[C@H]3C2O[C@H](C[C@H](O)COC)C(C)(C)C3OC)O[C@H](C)[C@@H]1C (some centres not stated), the TGI [2] is reported as > 0.00772 µM, the TGI [4] is reported as > 0.00772 µM and the TGI [5] is reported as > 0.00772 µM. The TGI [6] was > 0.00772 µM, the TGI [7] was > 0.00772 µM and the TGI [8] was > 0.00772 µM. The TGI [9] was > 0.00772 µM and the TGI [10] was > 0.00772 µM.

CN(C)C=Nc1nncc2n[nH]nc12 was tested, and the TGI [1] was > 100 µM, the TGI [2] was > 100 µM and the TGI [4] was > 100 µM. The TGI [5] was > 100 µM, the TGI [6] was > 100 µM and the TGI [7] was > 100 µM. The TGI [8] was > 100 µM, the TGI [9] was > 100 µM and the TGI [10] was > 100 µM.

CCC1CCC2c3c([nH]c4ccccc34)C3C(=O)N(c4ccc(OC)cc4)C(=O)C3C2C1 (configuration not stated) was tested, and the TGI [1] was > 100 µM, the TGI [2] was > 100 µM and the TGI [5] was > 100 µM. For the same compound, the TGI [6] was > 100 µM, the TGI [7] was > 100 µM and the TGI [8] was 74.9 µM. The TGI [9] was 41.1 µM and the TGI [10] was > 100 µM.

CN(CCN(C)C(=O)CCn1ccc(=O)[nH]c1=O)C(=O)CCn1ccc(=O)[nH]c1=O was tested, and the TGI [1] was > 100 µM, the TGI [2] was > 100 µM and the TGI [4] was > 100 µM. The TGI [5] was > 100 µM, the TGI [6] was > 100 µM and the TGI [7] was > 100 µM. The TGI [8] was > 100 µM and the TGI [9] was > 100 µM.

Cc1cc(C)c2c(c1)CC1(Cc3c(C)cc(C)cc3C1=O)C2=O (configuration not stated) was tested, and the TGI [1] was > 100 µM, the TGI [3] was > 100 µM and the TGI [4] was > 100 µM. The TGI [5] was > 100 µM, the TGI [6] was > 100 µM and the TGI [7] was > 100 µM. For the same compound, the TGI [8] was > 100 µM, the TGI [9] was > 100 µM and the TGI [10] was > 100 µM.

Work on O=S(=O)(/N=C1/SC(=Nc2ccccc2)N(c2ccccc2)/C1=N/S(=O)(=O)c1ccccc1)c1ccccc1 yielded a TGI [1] of 68.7 µM, a TGI [2] of 38.4 µM and a TGI [3] of 62.9 µM. For the same compound, the TGI [4] was 51.6 µM, the TGI [6] was 34 µM and the TGI [7] was 31.3 µM. The TGI [8] was 96.8 µM, the TGI [9] was 62.1 µM and the TGI [10] was 43.4 µM.

For CC1(C)CC(=O)C(=CN2C(=O)CNC2=S)C(=O)C1, the TGI [1] was > 100 µM, the TGI [2] was > 100 µM and the TGI [3] was > 100 µM. The TGI [4] was > 100 µM, the TGI [5] was > 100 µM and the TGI [7] was > 100 µM. The TGI [8] was > 100 µM, the TGI [9] was > 100 µM and the TGI [10] was > 100 µM.

With COc1cc(C2(C)SCCCS2)c(I)c(OC)c1OC the TGI [1] was > 100 µM, the TGI [2] was > 100 µM and the TGI [3] was > 100 µM. For the same compound, the TGI [4] was > 100 µM, the TGI [6] was > 100 µM and the TGI [7] was > 100 µM. For the same compound, the TGI [8] was > 100 µM, the TGI [9] was > 100 µM and the TGI [10] was > 100 µM.

CCOC(=O)c1cc(-c2ccn(C(C)=O)c2)c(-c2cc(C)co2)[nH]1 was tested, and the TGI [1] was > 100 µM, the TGI [2] was > 100 µM and the TGI [4] was > 100 µM. The TGI [5] was > 100 µM, the TGI [6] was > 100 µM and the TGI [7] was > 100 µM. The TGI [8] was > 100 µM, the TGI [9] was > 100 µM and the TGI [10] was > 100 µM.

In the case of CN(C)c1ccc(/C=C2\C[C@H]3[C@@H]4CCc5cc(O)ccc5[C@H]4CC[C@]3(C)C2=O)cc1, the TGI [1] is reported as > 100 µM, the TGI [3] is reported as > 100 µM and the TGI [4] is reported as > 100 µM. For the same compound, the TGI [5] was > 100 µM, the TGI [6] was > 100 µM and the TGI [7] was > 100 µM. The TGI [8] was > 100 µM, the TGI [9] was > 100 µM and the TGI [10] was > 100 µM.

In the case of CCOC(=O)C[n+]1ccc2c([nH]c3cc(OC)ccc32)c1C, the TGI [2] is reported as > 100 µM, the TGI [3] is reported as > 100 µM and the TGI [4] is reported as > 100 µM. The TGI [5] was > 100 µM, the TGI [6] was > 100 µM and the TGI [7] was > 100 µM. The TGI [8] was > 100 µM, the TGI [9] was > 100 µM and the TGI [10] was > 100 µM.
